This note sets out measurements from patent US9073864B2, “Aromatic ring compound” (TAKEDA PHARMACEUTICAL COMPANY LIMITED, priority 2012, dated 2015).

The target of the assay is T1, human type glucagon receptor (Homo sapiens, UniProt P47871).
T1 construct: an about 1.4 kb DNA fragment containing glucagon receptor gene was recovered from the gel; expressed in transfected cells; host or cells: FreeStyle CHO cells (transient expression); membrane fraction prepared by homogenisation and ultracentrifugation
T1 sequence (P47871 26-477): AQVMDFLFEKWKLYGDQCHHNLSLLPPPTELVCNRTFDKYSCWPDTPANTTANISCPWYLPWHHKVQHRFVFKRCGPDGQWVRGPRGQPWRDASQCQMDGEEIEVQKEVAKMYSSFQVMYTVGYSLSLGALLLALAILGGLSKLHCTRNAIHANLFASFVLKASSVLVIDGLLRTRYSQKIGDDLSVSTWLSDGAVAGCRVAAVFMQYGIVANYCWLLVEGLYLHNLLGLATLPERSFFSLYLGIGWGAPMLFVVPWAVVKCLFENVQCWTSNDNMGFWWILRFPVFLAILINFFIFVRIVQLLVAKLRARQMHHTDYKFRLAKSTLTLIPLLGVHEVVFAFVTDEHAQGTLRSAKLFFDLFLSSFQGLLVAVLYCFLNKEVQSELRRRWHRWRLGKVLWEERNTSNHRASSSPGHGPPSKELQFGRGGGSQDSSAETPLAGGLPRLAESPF
Kind of assay: Measurement of glucagon binding inhibitory activity ([125I]-glucagon, receptor membrane protein). Conditions: test compound 10 μM; 0.4% DMSO alone = 0%, unlabeled glucagon 1 μM = 100%; read-out: inhibitory rate (%) at 10 μM. The protocol: The glucagon binding inhibitory action of the compound of the present invention was evaluated by the following method.
(1) Cloning of Human Glucagon Receptor Gene
Human glucagon receptor gene was cloned by PCR reaction using human pancreas Marathon-ready cDNA (Clontech Laboratories, Inc.) as a template and the following primer set.
The PCR reaction was performed using Advantage 2 polymerase (Clontech Laboratories, Inc.) and according to the attached protocol. The obtained PCR product was subjected to agarose gel (1%) electrophoresis, an about 1.4 kb DNA fragment containing glucagon receptor gene was recovered from the gel, and digested with restriction enzymes EcoRI and NotI. The restriction enzyme-treated DNA was subjected to agarose gel (1%) electrophoresis, an about 1.4 kb DNA fragment was recovered and ligated with plasmid pMSRaneo digested with restriction enzymes EcoRI and NotI to give human type glucagon receptor expression plasmid DNA “pMSRaneo/hGCGR”. The base sequence of the inserted fragment was confirmed to be identical with the object sequence.
(2) Preparation of Glucagon Receptor Membrane Protein
Human type glucagon receptor was expressed using FreeStyle CHO Expression System (Invitrogen™). According to the manual attached to the FreeStyle CHO Expression System, and using the human type glucagon receptor expression plasmid DNA “pMSRaneo/hGCGR” produced in the above-mentioned (1), transient expression was performed by FreeStyle CHO cells. The above-mentioned DNA was transfected, and shaking culture was performed at 37° C., 8% CO2, 125 rpm for 2 days. The culture medium was centrifuged at 2,000 rpm for 10 min and the cells were recovered. The recovered cells were washed with PBS, suspended in homogenate buffer [10 mM NaHCO3 (pH 7.4), 1 mM EDTA, complete EDTA-free (Roche, Ltd., 1 tablet/50 ml)], and the cells were disrupted by a Polytron cell disruption apparatus (Kinematica AG). The disruption solution was centrifuged at 2,000 rpm for 10 min, and the supernatant was recovered. The supernatant was centrifuged at 35,000 rpm for 60 min, and the precipitate was suspended in a buffer [20 mM Tris-HCl (pH 7.4), 5 mM EDTA, complete EDTA-free (Roche, Ltd., 1 tablet/50 ml)] to give a glucagon receptor membrane protein.
(3) Measurement of Glucagon Binding Inhibitory Activity
The reaction was started by adding 50 μl of a glucagon receptor membrane protein solution diluted with a reaction buffer [50 mM HEPES (pH 7.4), 5 mM EGTA, 5 mM magnesium chloride, 0.1% BSA, 0.005% Tween20] to 100 μg/ml, 25 μl of a test compound solution containing 0.4% DMSO, which solution was prepared with the reaction buffer to a compound concentration of 40 μM, and 25 μl of radiolabeled glucagon ([^125I]-Receptor Grade Glucagon; Perkin Elmer Inc.) diluted with the reaction buffer to 200 pM to each well of a 96 well plate (Corning Incorporated). The plate was stood at room temperature for 90 min, then the reaction solution was transferred from the reaction plate onto a 96 well unifilter GF/C plate (Perkin Elmer Inc.) by a cell harvester (Perkin Elmer Inc.), and suctioned to collect a membrane fraction on the filter. The filter was immersed in a 0.3% polyethyleneimine solution in advance to prevent non-specific adsorption of the labeled ligand. The filter was washed 4 times with the reaction buffer, and dried at 42° C. for 2 hr. To each well was added 25 μl of scintillator (MicroScint0; Perkin Elmer Inc.), and the amount of fluorescence was measured by a microplate scintillation counter (TopCount NXT™; Perkin Elmer Inc.).
The inhibitory rate (%) of the well added with the test compound (10 μM; containing 0.4% DMSO solution) was calculated wherein the reaction rate of the well added with 0.4% DMSO alone was 0% inhibitory rate and that of the well added with unlabeled glucagon (final concentration 1 μM) was 100% inhibitory rate.
Consider `Cc1cc(-c2ccc(C(F)(F)F)nc2)ccc1C(CCC(F)(F)F)Nc1ccc(C(=O)N2CCC[C@@H](C(=O)O)C2)cc1` (mixture of isomers) [Example 9, (3R)-1-(4-((4,4,4-trifluoro-1-(2-methyl-4-(6-(trifluoromethyl)pyridin-3-yl)phenyl)butyl)amino)benzoyl)piperidine-3-carboxylic acid], for which the inhibition at 10 µM turned out to be 90%.

Consider `Cc1cc(-c2ccc(C(F)(F)F)cn2)ccc1C(CCC(F)(F)F)Nc1ccc(C(=O)N2CCC[C@@H](C(=O)O)C2)cc1` (mixture of isomers) [Example 10, (3R)-1-(4-((4,4,4-trifluoro-1-(2-methyl-4-(5-(trifluoromethyl)pyridin-2-yl)phenyl)butyl)amino)benzoyl)piperidine-3-carboxylic acid], for which the inhibition at 10 µM stood at 88%.

On to `Cc1cc(-c2ncc(C(F)(F)F)cn2)ccc1C(CCC(F)(F)F)Nc1ccc(C(=O)N2CCC[C@@H](C(=O)O)C2)cc1` (mixture of isomers) [Example 11, (3R)-1-(4-((4,4,4-trifluoro-1-(2-methyl-4-(5-(trifluoromethyl)pyrimidin-2-yl)phenyl)butyl)amino)benzoyl)piperidine-3-carboxylic acid], for which the inhibition at 10 µM worked out at 93%.

Turning to `Cc1cc(-c2ncc(Cl)cn2)ccc1C(CCC(F)(F)F)Nc1ccc(C(=O)N2CCC[C@@H](C(=O)O)C2)cc1` (mixture of isomers) [Example 12, (3R)-1-(4-((1-(4-(5-chloropyrimidin-2-yl)-2-methylphenyl)-4,4,4-trifluorobutyl)amino)benzoyl)piperidine-3-carboxylic acid], the inhibition at 10 µM is 96%.

Regarding `CCc1cnc(-c2ccc(C(CCC(F)(F)F)Nc3ccc(C(=O)N4CCC[C@@H](C(=O)O)C4)cc3)c(C)c2)nc1` (mixture of isomers) [Example 13, (3R)-1-(4-((1-(4-(5-ethylpyrimidin-2-yl)-2-methylphenyl)-4,4,4-trifluorobutyl)amino)benzoyl)piperidine-3-carboxylic acid], the inhibition at 10 µM worked out at 84%.

On to `Cc1cc(-n2ccc(C(C)C)n2)ccc1C(CCC(F)(F)F)Nc1ccc(C(=O)N2CCC[C@@H](C(=O)O)C2)cc1` (mixture of isomers) [Example 19, (3R)-1-(4-((4,4,4-trifluoro-1-(4-(3-isopropyl-1H-pyrazol-1-yl)-2-methylphenyl)butyl)amino)benzoyl)piperidine-3-carboxylic acid], for which the inhibition at 10 µM came to 87%.

Take `Cc1cc(-n2cc3c(n2)CCCC3)ccc1C(CCC(F)(F)F)Nc1ccc(C(=O)N2CCC[C@@H](C(=O)O)C2)cc1` (mixture of isomers) [Example 20, (3R)-1-(4-((4,4,4-trifluoro-1-(2-methyl-4-(4,5,6,7-tetrahydro-2H-indazol-2-yl)phenyl)butyl)amino)benzoyl)piperidine-3-carboxylic acid]: the inhibition at 10 µM was 93%.

Take `Cc1cc(-n2cc3c(n2)CCCC3)ccc1C(Nc1ccc(C(=O)N2CCC[C@@H](C(=O)O)C2)cc1)C(C)C` (mixture of isomers) [Example 116, (3R)-1-(4-((2-methyl-1-(2-methyl-4-(4,5,6,7-tetrahydro-2H-indazol-2-yl)phenyl)propyl)amino)benzoyl)piperidine-3-carboxylic acid]: the inhibition at 10 µM came out at 90%.

Turning to `Cc1cc(-c2ccc(F)cc2)ccc1C(CCC(F)(F)F)Nc1ccc(C(=O)N2CCC[C@@H](C(=O)O)C2)cc1` (stereo partly drawn) [Example 5, (3R)-1-(4-((4,4,4-trifluoro-1-(4′-fluoro-3-methylbiphenyl-4-yl)butyl)amino)benzoyl)piperidine-3-carboxylic acid], the inhibition at 10 µM came to 86%.

Turning to `Cc1cc(-c2ccc(F)cc2)ccc1C(CCC(F)(F)F)Nc1ccc(C(=O)N2CCC[C@@H](C(=O)O)C2)cn1` (stereo partly drawn) [Example 6, (3R)-1-((6-((4,4,4-trifluoro-1-(4′-fluoro-3-methylbiphenyl-4-yl)butyl)amino)pyridin-3-yl)carbonyl)piperidine-3-carboxylic acid], the inhibition at 10 µM stood at 85%.

As to `COc1ccc(-c2ccc(C(CCC(F)(F)F)Nc3ccc(C(=O)N4CCC[C@@H](C(=O)O)C4)cc3)c(C)c2)cc1` (stereo partly drawn) [Example 7, (3R)-1-(4-((4,4,4-trifluoro-1-(4′-methoxy-3-methylbiphenyl-4-yl)butyl)amino)benzoyl)piperidine-3-carboxylic acid], the inhibition at 10 µM stood at 91%.

Regarding `Cc1cc(-c2ccc(C#N)cc2)ccc1C(CCC(F)(F)F)Nc1ccc(C(=O)N2CCC[C@@H](C(=O)O)C2)cc1` (stereo partly drawn) [Example 8, (3R)-1-(4-((1-(4′-cyano-3-methylbiphenyl-4-yl)-4,4,4-trifluorobutyl)amino)benzoyl)piperidine-3-carboxylic acid], the inhibition at 10 µM came to 91%.

For the compound `Cc1cc(-c2ccc(C(F)(F)F)nc2)ccc1C(CCC(F)(F)F)Nc1ccc(C(=O)N2CCC[C@@H](C(=O)O)C2)cc1` (stereo partly drawn) [Example 14, (3R)-1-(4-((4,4,4-trifluoro-1-(2-methyl-4-(6-(trifluoromethyl)pyridin-3-yl)phenyl)butyl)amino)benzoyl)piperidine-3-carboxylic acid], the inhibition at 10 µM was determined as 88%.

As for `Cc1cc(-c2ccc(Cl)cc2)ccc1C(CCC(F)(F)F)Nc1ccc(C(=O)N2CCC[C@@H](C(=O)O)C2)cn1` (stereo partly drawn) [Example 15, (3R)-1-((6-((1-(4′-chloro-3-methylbiphenyl-4-yl)-4,4,4-trifluorobutyl)amino)pyridin-3-yl)carbonyl)piperidine-3-carboxylic acid], the inhibition at 10 µM came out at 92%.

Regarding `Cc1cc(-c2ccc(Cl)cc2)ccc1C(Nc1ccc(C(=O)N2CCC[C@@H](C(=O)O)C2)cc1)C1CCCCC1` (stereo partly drawn) [Example 16, (3R)-1-(4-(((4′-chloro-3-methylbiphenyl-4-yl)(cyclohexyl)methyl)amino)benzoyl)piperidine-3-carboxylic acid], the inhibition at 10 µM was determined as 93%.

Consider `Cc1cc(-c2ccc(Cl)cc2)ccc1C(Nc1ccc(C(=O)N2CCC[C@@H](C(=O)O)C2)cn1)C1CCCCC1` (stereo partly drawn) [Example 17, (3R)-1-((6-(((4′-chloro-3-methylbiphenyl-4-yl)(cyclohexyl)methyl)amino)pyridin-3-yl)carbonyl)piperidine-3-carboxylic acid], for which the inhibition at 10 µM was 92%.

In the case of `Cc1cc(C(CCC(F)(F)F)Nc2ccc(C(=O)N3CCC[C@@H](C(=O)O)C3)cc2)cc(C)c1-c1ccc(Cl)cc1` (stereo partly drawn) [Example 18, (3R)-1-(4-((1-(4′-chloro-2,6-dimethylbiphenyl-4-yl)-4,4,4-trifluorobutyl)amino)benzoyl)piperidine-3-carboxylic acid], the inhibition at 10 µM came out at 86%.

Take `Cc1cc(-n2ccc(C(C)C)n2)ccc1C(CCC(F)(F)F)Nc1ccc(C(=O)N2CCC[C@@H](C(=O)O)C2)cc1` (stereo partly drawn) [Example 22, (3R)-1-(4-((4,4,4-trifluoro-1-(4-(3-isopropyl-1H-pyrazol-1-yl)-2-methylphenyl)butyl)amino)benzoyl)piperidine-3-carboxylic acid]: the inhibition at 10 µM is 89%.

Consider `Cc1cc(-c2ncc(C(C)(C)C)o2)ccc1C(CCC(F)(F)F)Nc1ccc(C(=O)N2CCC[C@@H](C(=O)O)C2)cc1` (stereo partly drawn) [Example 23, (3R)-1-(4-((1-(4-(5-tert-butyl-1,3-oxazol-2-yl)-2-methylphenyl)-4,4,4-trifluorobutyl)amino)benzoyl)piperidine-3-carboxylic acid], for which the inhibition at 10 µM amounted to 90%.

As to `O=C(O)[C@@H]1CCCN(C(=O)c2ccc(NC(c3ccc(-c4ccc(Cl)cc4)cc3)C3CCCCC3)cc2)C1` (stereo partly drawn) [Example 24, (3R)-1-(4-(((4′-chlorobiphenyl-4-yl)(cyclohexyl)methyl)amino)benzoyl)piperidine-3-carboxylic acid], the inhibition at 10 µM amounted to 84%.
